# Data taken from PMC5677370, “Structure-based nuclear import mechanism of histones H3 and H4 mediated by Kap123” (eLife, 2017).
# Assays:
# [1] = test system: wild-type Kl Kap123; test: SPR binding of wild-type or mutant H3_1–35-/H4_1–21-NLS peptides to immobilized wild-type Kap123; set-up: species or system Kluyveromyces lactis; details: 10 mM HEPES, 150 mM NaCl, 7°C, relative to wild-type; for affinity of mutant H3-NLS toward Kap123: wild-type Kap123 immobilized 7500 RU on CM5, H3_1–35-NLS peptides 0-5 μM
# Experimental: Figure 5. Surface plasmon resonance analysis of wild-type Kl Kap123 in the presence of wild-type or mutants of H3_1–35-/H4_1–21-NLSs. The biacore diagrams (a) and the normalized bar graph (c) of wild-type Kap123 in the presence of wild-type or mutant H3_1-35-NLS. The wild-type Kap123 was immobilized on a CM5 chip with 7500 RU and the wild-type or mutant H3_1–35-NLS peptides (H3_K14A, H3_K14Q, H3_K23A, H3_K23Q, or H3_K14Q/K23Q) were injected at different concentrations (0, 0.07, 0.15, 0.32, 0.65, 1.25, 2.5, and 5 μM). The biacore diagrams (b) and the bar graph (d) of wild-type Kap123 in the presence of wild-type or mutant H4_1–21-NLS. The wild-type Kap123 was immobilized on a CM5 chip with 7116 RU and the wild-type or mutant H4_1–21-NLS peptides (H4_K16A or H4_K5Q/K12Q) were injected at different concentrations (0, 0.32, 0.62, 1.25, 2.5, 5, and 10 μM). The H4K16Q peptide was used at different concentrations (0, 0.7, 1.5, 3, 6, 12, and 25 uM). See details in Materials and method section. Red-colored sensorgrams represent positive controls of wild-type Kap123, which were injected 2000 nM wild-type Kap123 before and after sample injection (a–b). The relative binding between wild-type Kap123 and mutant peptides was measured at five different concentrations for generating error bars (c–e). (e) The normalized affinity bar graph of H3-/H4-NLS toward wild-type Kap123 was derived from (a) and (b).
# A CM5 chip (GE healthcare) was coated with streptavidin in 10 mM acetate pH 4.5 at a flow rate of 5 μl/min. The biotinylated C-terminal histone H3 peptide (residues 1–35) was synthesized (Anygen, South Korea) and immobilized on the CM5 chip coated with streptavidin with a flow rate of 5 μl/min in the binding buffer (10 mM HEPES, 150 mM NaCl). Various concentrations of the wild-type and mutant Kl Kap123 protein (see figure legends of Figures 3 and 4) were prepared in the binding buffer with 2 mM TCEP and then injected at the flow rate of 30 μl/min in the binding buffer using a T200 instrument (GE Healthcare) at 7°C. After injecting the sample, the chip was regenerated by a regeneration buffer (1 M NaCl and 20 mM NaOH in binding buffer) at a flow rate of 30 μl/min. For measuring the interaction of wild-type Kl Kap123 and mutant histone H3 or H4 peptides, 0.1 μM Kap123 diluted in10mM acetate pH 4.0 was immobilized 7100 RU on the CM5 chip at flow rate of 5 μl/min. Peptides of histone H3 or H4 mutants were injected at a flow rate of 30 μl/min in the binding buffer and the binding was monitored at various concentrations (0, 0.31, 0.62, 1.25, 2.5, 5 and 10 uM) at 7°C. For the H4K16Q peptide, Kap 123 was immobilized with 5100 RU on CM5 chip, and H4K16Q and wild-type H4 peptides (0, 0.7, 1.5, 3, 6, 12 and 25 uM) were injected as analytes at a flow rate of 30 μl/min at 7°C.
# [2] = test system: Kap123-H3-NLS; test: Competition pull-down: pre-assembled MBP-Kap123-H3-NLS challenged by H4-NLS; format: binding; details: amylose affinity pull-down, MBP-tagged Kap123 pre-assembled with H3_1–59-Sumo, challenged by H4_1–48-Sumo (wild-type or mutant) 0x, 1x, 2x, 5x, 10x; 30 mM Tris–HCl pH 8.0, 50 mM NaCl, 1 mM DTT, 0.01% NP-40; 90 mins at 4°C; three independent assays
# Experimental: Figure 6. Competition assay of H3- and H4-NLSs (wild-type H4 and mutant H4^K5Q/K12Q) toward Kap123 association. Competition of H3_1–59- and H4_1–48-Sumo (a) as well as H3_1–59- and H4_1–48 ^K5Q/K12Q-Sumo (b) toward Kap123 binding was monitored by amylose affinity pull-downs using MBP-tagged Kap123. A fixed amount of the pre-assembled complex of MBP-tagged Kap123 and H4_1–48-Sumo was challenged by an increasing amount of H3_1–59-Sumo. The same competition assay was done by using pre-incubated MBP-tagged Kap123-H3_1–59-Sumo and gradually increasing the amount of H4_1–48-Sumo either with wild-type (a) or mutant (b), K5Q/K12Q) H4 sequence. (c–d) The normalized bar graphs of remaining H3_1–59- and H4_1–48-NLS-Sumo after challenged with increased amounts of H4_1–48- and H3_1–59-NLS-Sumo (0x, 1x, 2x, 5x, and 10x) toward Kap123, respectively. Either H4_1–48-NLS-Sumo (c) or H4_1–48^K5Q/K12Q-NLS-Sumo (d) was used for the H3_1–59-NLS-Sumo competition. Three independent competition assays were carried out and the band intensity was measured to calculate the error bar. Figure 6—figure supplement 1. […] (a) Competition of H3_1–59-Sumo using either H4_1–48-Sumo or H4_1–48 ^K5Q/K8Q/K12Q-Sumo toward Kap123 binding was monitored by amylose affinity pull-downs using MBP-tagged Kap123. […] Three independent competition assays were carried out and the band intensity was measured to calculate the error bar. […]
# [3] = test system: nuclear translocation of the H4-NLS-GFP reporter; details: GFP reporter assay; ref Blackwell et al., 2007; cited from earlier work
# [4] = molecular target: Kapβ2; details: ref Soniat et al., 2016; read-out: KD of Kapβ2-H3_1–47-NLS interaction; cited from earlier work
# Source text: Accumulated evidence illustrates that cytosolic histones H3 and H4 are acetylated prior to nuclear import and believed to play a role in the translocation process mediated by Kap123 ([Sobel et al., 1994]; [Sobel et al., 1995]; [Loyola et al., 2006]; [Jasencakova et al., 2010]; [Ma et al., 1998]; [Blackwell et al., 2007]; [Kuo et al., 1996]).
substance,measurement,setting,value
H3 K23Q,affinity of mutant H3-NLS toward Kap123,[1]; five concentrations,decreased the affinity toward Kap123
H4-NLS^K5Q/K8Q/K12Q: tri-acetylation mimic mutant of H4-NLS (H4_1–48-Sumo in competition assay),competition with H3-NLS for Kap123,[2],no longer competed with H3-NLS in Kap123 interaction
same,"nuclear translocation of H4-NLS-GFP reporter, acetylation mimic",[3],dramatically reduced the nuclear translocation
"H4_1–48^K5Q/K12Q-Sumo: C-terminal Sumo-tagged histone H4_1–48, K5Q/K12Q",competition with H3-NLS for Kap123,[2],loss of competition
H3 K14A,affinity of mutant H3-NLS toward Kap123,[1]; five concentrations,decreased the affinity toward Kap123
H4-NLS^K16Q,affinity of H4 K16Q toward Kap123,"[1]; Kap123 immobilized 5100 RU on CM5, H4K16Q 0-25 uM",reduced the affinity toward Kap123 although the effect was mild
H3_1–47-NLS: histone H3 residues 1–47 NLS bound to Kapβ2,Kd,[4],77.1 nM
H3 K23A,affinity of mutant H3-NLS toward Kap123,[1]; five concentrations,decreased the affinity toward Kap123
H4-NLS^K16A,affinity of mutant H4-NLS toward Kap123,"[1]; wild-type Kap123 immobilized 7116 RU on CM5, H4_1–21-NLS peptides 0-10 μM, five concentrations",reduced the affinity toward Kap123 although the effect was mild
H3 K14Q,affinity of mutant H3-NLS toward Kap123,[1]; five concentrations,decreased the affinity toward Kap123
